Patent publication US20040116420A1 (priority 2001, published 2004)

What was measured:
HSV-1 protease = target: T1, HSV-1 protease (Human herpesvirus 1, UniProt P10210); test: Enzymatic assay for HSV-1 protease (assembly) inhibitor, fluorescence polarization; assay type: biochemical; details: read-out: HSV-1 Enzyme inhibition IC50
T1 construct: 6xHis (N); made in house; host or cells: baculovirus expression system
How it was run: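 His6-tagged HSV-1 UL26 protease, baculovirus-expressed, preincubated 30 min at RT with compound in 1 M citrate/phosphate buffer pH 7.4 with 20% glycerol and 2 mM TCEP. A biotin-HTYLQA*SERFRIK-DTAF substrate was then cleaved for 60 min at RT, stopped with avidin, and read by fluorescence polarization versus no-inhibitor control.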

HSV-1 = test: Antiviral activity, HSV-1 in Vero cells, plaque method; assay type: cell-based; details: 90% inhibition of plaque formation
How it was run: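 HSV-1 (50,000 pfu in 2% FBS-DMEM) was added to Vero cells and removed, then the compound was applied in 2% FBS-DMEM for 20 h at 37° C, 5% CO2. After a freeze-thaw, virus yield in the medium was titred by plaque assay. EC90 is the concentration giving 90% plaque reduction versus the compound-free control.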

Vero cells = test: Cytotoxicity, Vero cells, Alamar Blue; assay type: cell-based; details: 25 μM, 20 hours
Description: An Assay Method for Cytotoxicity
The Vero cells were sown on a 96-well plate and then cultured overnight. The culture supernatant was removed, and 200 μl of 2% FBS-DMEM comprising 25 μM of the test compound was added. In this case, a substance to which 2% FBS-DMEM not comprising any test compound had been added was determined as a control. These cells were incubated in the presence of 5% CO2 at 37° C. for 20 hours. Alamar Blue (20 μl) was added to the cells, and cells were incubated for about 6 hours until the color of the control changed. The ratio of the absorbance was assayed using a microplate reader for absorption, and the value relative to the control was determined to be the ratio of living cells.

[1] = Human alphaherpesvirus 1, 20 hours

T1 sequence (P10210 1-247): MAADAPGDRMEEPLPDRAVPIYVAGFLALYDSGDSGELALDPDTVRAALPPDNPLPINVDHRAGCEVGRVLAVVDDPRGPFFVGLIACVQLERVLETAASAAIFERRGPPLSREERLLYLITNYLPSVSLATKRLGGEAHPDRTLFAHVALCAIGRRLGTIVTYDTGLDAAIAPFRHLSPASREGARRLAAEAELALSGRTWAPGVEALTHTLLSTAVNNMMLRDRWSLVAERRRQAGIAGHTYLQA

Cc1c(NC(=O)OC(C)(C)C)ccc2nc(N[C@@H](CC(C)C)C(=O)NCc3ccncc3)oc(=O)c12 [Compound No.38, (5-Methyl-2-{3-methyl-1S-[(pyridin-4-ylmethyl)-carbamoyl]-butylamino}-4-oxo-4H-benzo[d][1,3]oxazin-6-yl)-carbamic acid tert-butyl ester]
IC50 (HSV-1 protease): 10.1 µM
EC90 (HSV-1; [1]): > 25 µM
Cell viability (% of control) (Vero cells): 105.0%

Cc1ccc(C(=O)Nc2ccc3nc(NC(C)(C)C(=O)N(C)CCc4ccccn4)oc(=O)c3c2C)cc1 [Compound No.158, 4-Methyl-N-(5-methyl-2-{1-methyl-1-[methyl-(2-pyridin-2-yl-ethyl)-carbamoyl]-ethylamino}-4-oxo-4H-benzo[d][1,3]oxazin-6-yl)-benzamide]
IC50 (HSV-1 protease): 3.3 µM
EC90 (HSV-1; [1]): 8.3 µM
Cell viability (% of control) (Vero cells): 63.6%

Cc1c(NC(=O)OC(C)(C)C)ccc2nc(N(C)[C@@H](Cc3ccccc3)C(=O)NCCc3ccccn3)oc(=O)c12 [Compound No.81, (5-Methyl-2-{methyl-[2-phenyl-1S-(2-pyridin-2-yl-ethylcarbamoyl)-ethyl]-amino}-4-oxo-4H-benzo[d][1,3]oxazin-6-yl)-carbamic acid tert-butyl ester]
IC50 (HSV-1 protease): 1.7 µM
EC90 (HSV-1; [1]): 9.5 µM
Cell viability (% of control) (Vero cells): 49.7%

Cc1c(NC(=O)OC(C)(C)C)ccc2nc(N3C[C@H](OCc4ccccc4)C[C@H]3C(=O)N(C)CCc3cccnc3)oc(=O)c12 [Compound No.115, (2-{4R-Benzyloxy-2S-[methyl-(2-pyridin-3-yl-ethyl)-carbamoyl]-pyrrolidin-1-yl}-5-methyl-4-oxo-4H-benzo[d][1,3]oxazin-6-yl)-carbamic acid tert-butyl ester]
IC50 (HSV-1 protease): > 20 µM
EC90 (HSV-1; [1]): 6.1 µM
Cell viability (% of control) (Vero cells): 71.4%

Cc1c(NC(=O)c2ccccc2Br)ccc2nc(NC(C)(C)C(=O)N(C)CCc3ccccn3)oc(=O)c12 [compound 199, 2-Bromo-N-(5-methyl-2-{1-methyl-1-[methyl-(2-pyridin-2-yl-ethyl)-carbamoyl]-ethylamino}-4-oxo-4H-benzo[d][1,3]oxazin-6-yl)-benzamide]
IC50 (HSV-1 protease): 3 µM
EC90 (HSV-1; [1]): 4.1 µM
Cell viability (% of control) (Vero cells): 56.9%

Cc1c(NC(=O)c2cccc(Cl)c2)ccc2nc(NC(C)(C)C(=O)N(C)CCc3ccccn3)oc(=O)c12 [Compound No.152, 3-Chloro-N-(5-methyl-2-{1-methyl-1-[methyl-(2-pyridin-2-yl-ethyl)-carbamoyl]-ethylamino}-4-oxo-4H-benzo[d][1,3]oxazin-6-yl)-benzamide]
IC50 (HSV-1 protease): 1.8 µM
EC90 (HSV-1; [1]): 6.3 µM
Cell viability (% of control) (Vero cells): 30.9%

Cc1c(NC(=O)OC(C)(C)C)ccc2nc(N3CCC[C@H]3C(=O)NCc3ccncc3)oc(=O)c12 [Compound No.88, (5-Methyl-4-oxo-2-{2S-[(pyridin-4-ylmethyl)-carbamoyl]-pyrrolidin-1-yl}-4H-benzo[d][1,3]oxazin-6-yl)-carbamic acid tert-butyl ester]
IC50 (HSV-1 protease): 2.7 µM
EC90 (HSV-1; 20 hours): > 12.5 µM
Cell viability (% of control) (Vero cells): 74.1%

COC(=O)c1ccc(C(=O)Nc2ccc3nc(NC(C)(C)C(=O)N(C)CCc4ccccn4)oc(=O)c3c2C)cc1 [Compound No.150, N-(5-Methyl-2-{1-methyl-1-[methyl-(2-pyridin-2-yl-ethyl)-carbamoyl]-ethylamino}-4-oxo-4H-benzo[d][1,3]oxazin-6-yl)-tetraphthalic acid methyl ester]
IC50 (HSV-1 protease): 1.4 µM
EC90 (HSV-1; [1]): 6.1 µM
Cell viability (% of control) (Vero cells): 81.5%

CCCCCCCC(=O)Nc1ccc2nc(NC(C)(C)C(=O)N(C)CCc3ccccn3)oc(=O)c2c1C [Compound No.196, Octanoic acid (5-methyl-2-{1-methyl-1-[methyl-(2-pyridin-2-yl-ethyl)-carbamoyl]-ethylamino}-4-oxo-4H-benzo[d][1,3]oxazin-6-yl)-amide]
IC50 (HSV-1 protease): 0.8 µM
EC90 (HSV-1; [1]): 11.5 µM
Cell viability (% of control) (Vero cells): 86.5%

Cc1c(NC(=O)OC(C)(C)C)ccc2nc(N[C@@H](C)C(=O)N(C)CCc3ccncc3)oc(=O)c12 [Compound No.50, (5-Methyl-2-{1S-[methyl-(2-pyridin-4-yl-ethyl)-carbamoyl]-ethylamino}-4-oxo-4H-benzo[d][1,3]oxazin-6-yl)-carbamic acid tert-butyl ester]
IC50 (HSV-1 protease): 0.9 µM
EC90 (HSV-1; [1]): < 3.2 µM
Cell viability (% of control) (Vero cells): 106.0%

Cc1c(NC(=O)OC(C)(C)C)ccc2nc(N[C@@H](CC(C)C)C(=O)N(C)CCc3cccnc3)oc(=O)c12 [Compound No.68, (5-Methyl-2-{3-methyl-1S-[methyl-(2-pyridin-3-yl-ethyl)-carbamoyl]-butylamino}-4-oxo-4H-benzo[d][1,3]oxazin-6-yl)-carbamic acid tert-butyl ester]
IC50 (HSV-1 protease): 2 µM
EC90 (HSV-1; [1]): 6.1 µM
Cell viability (% of control) (Vero cells): 66.9%

Cc1c(NC(=O)OC(C)(C)C)ccc2nc(N(C)[C@@H](C)C(=O)NCc3cccnc3)oc(=O)c12 [Compound No.72, [5-Methyl-2-(methyl-{1S-[(pyridin-3-ylmethyl)-carbamoyl]-ethyl}-amino)-4-oxo-4H-benzo[d][1,3]oxazin-6-yl]-carbamic acid tert-butyl ester]
IC50 (HSV-1 protease): 1.1 µM
EC90 (HSV-1; [1]): > 12.5 µM
Cell viability (% of control) (Vero cells): 90.7%

Cc1c(NC(=O)OC(C)(C)C)ccc2nc(N[C@H](C(=O)NCc3ccccn3)C(C)(C)C)oc(=O)c12 [Compound No.32, (2-{2,2-dimethyl-1S-[(pyridin-2-ylmethyl)-carbamoyl]-propylamino}-5-methyl-4-oxo-4H-benzo[d][1,3]oxazin-6-yl)-carbamic acid tert-butyl ester]
IC50 (HSV-1 protease): 19.6 µM
EC90 (HSV-1; [1]): 21.5 µM
Cell viability (% of control) (Vero cells): 111.0%

Cc1c(NC(=O)C2CCCC2)ccc2nc(NC(C)(C)C(=O)N(C)CCc3ccccn3)oc(=O)c12 [Compound No.188, Cyclopentanecarboxylic acid (5-methyl-2-{1-methyl-1-[methyl-(2-pyridin-2-yl-ethyl)-carbamoyl]-ethylamino}-4-oxo-4H-benzo[d][1,3]oxazin-6-yl)-amide]
IC50 (HSV-1 protease): 1.4 µM
EC90 (HSV-1; [1]): > 12.5 µM
Cell viability (% of control) (Vero cells): 91.7%

Cc1c(NC(=O)c2ccco2)ccc2nc(NC(C)(C)C(=O)N(C)CCc3ccccn3)oc(=O)c12 [Compound No.139, Furan-2-carboxylic acid (5-methyl-2-{1-methyl-1-[methyl-(2-pyridin-2-yl-ethyl)-carbamoyl]-ethylamino}-4-oxo-4H-benzo[d][1,3]oxazin-6-yl)-amide]
IC50 (HSV-1 protease): 1.4 µM
EC90 (HSV-1; [1]): > 12.5 µM
Cell viability (% of control) (Vero cells): 90.7%

Cc1c(NC(=O)OC(C)(C)C)ccc2nc(N3CCCC[C@H]3C(=O)N(C)CCc3ccccn3)oc(=O)c12 [Compound No.106, (5-Methyl-2-{2S-[methyl-(2-pyridin-2-yl-ethyl)-carbamoyl]-piperidin-1-yl}-4-oxo-4H-benzo[d][1,3]oxazin-6-yl)-carbamic acid tert-butyl ester]
IC50 (HSV-1 protease): 7.6 µM
EC90 (HSV-1; [1]): > 12.5 µM
Cell viability (% of control) (Vero cells): 53.3%

Cc1c(NC(=O)c2sccc2Cl)ccc2nc(NC(C)(C)C(=O)N(C)CCc3ccccn3)oc(=O)c12 [Compound No.179, 3-Chloro-thiophene-2-carboxylic acid (5-methyl-2-{1-methyl-1-[methyl-(2-pyridin-2-yl-ethyl)-carbamoyl]-ethylamino}-4-oxo-4H-benzo[d][1,3]oxazin-6-yl)-amide]
IC50 (HSV-1 protease): 1 µM
EC90 (HSV-1; [1]): 6.6 µM
Cell viability (% of control) (Vero cells): 61.7%

Cc1c(NC(=O)c2ccccc2OC(F)(F)F)ccc2nc(NC(C)(C)C(=O)N(C)CCc3ccccn3)oc(=O)c12 [Compound No.182, N-(5-Methyl-2-{1-methyl-1-[methyl-(2-pyridin-2-yl-ethyl)-carbamoyl]-ethylamino}-4-oxo-4H-benzo[d][1,3]oxazin-6-yl)-2-trifluoromethoxy-benzamide]
IC50 (HSV-1 protease): 4.9 µM
EC90 (HSV-1; [1]): > 12.5 µM
Cell viability (% of control) (Vero cells): 95.2%

Cc1c(NC(=O)c2cccc(C(F)(F)F)c2)ccc2nc(NC(C)(C)C(=O)N(C)CCc3ccccn3)oc(=O)c12 [Compound No.145, N-(5-Methyl-2-{1-methyl-1-[methyl-(2-pyridin-2-yl-ethyl)-carbamoyl]-ethylamino}-4-oxo-4H-benzo[d][1,3]oxazin-6-yl)-3-trifluoromethyl-benzamide]
IC50 (HSV-1 protease): 1.3 µM
EC90 (HSV-1; [1]): 6 µM
Cell viability (% of control) (Vero cells): 19.7%

Cc1c(NC(=O)OC(C)(C)C)ccc2nc(N[C@@H](Cc3ccccc3)C(=O)N(C)Cc3ccccn3)oc(=O)c12 [Compound No.57, {5-Methyl-2-[1S-(methyl-pyridin-2-ylmethyl-carbamoyl)-2-phenyl-ethylamino]-4-oxo-4H-benzo[d][1,3]oxazin-6-yl}-carbamic acid tert-butyl ester]
IC50 (HSV-1 protease): 1.7 µM
EC90 (HSV-1; [1]): < 3.2 µM
Cell viability (% of control) (Vero cells): 71.3%

CCCCOc1ccc(C(=O)Nc2ccc3nc(NC(C)(C)C(=O)N(C)CCc4ccccn4)oc(=O)c3c2C)cc1 [Compound No.165, 4-Butoxy-N-(5-methyl-2-{1-methyl-1-[methyl-(2-pyridin-2-yl-ethyl)-carbamoyl]-ethylamino}-4-oxo-4H-benzo[d][1,3]oxazin-6-yl)-benzamide]
IC50 (HSV-1 protease): 2 µM
EC90 (HSV-1; [1]): 3.6 µM
Cell viability (% of control) (Vero cells): 16.9%
